Consider 27 compounds from patent publication US20240158439A1, “INHIBITORS OF ANTIGEN PRESENTATION BY MHC CLASS II HLA-DRB1*15:01 MOLECULES WITH ENHANCED METABOLIC STABILITY” (Provid Pharmaceuticals Inc., priority 2021, published 2024).

This test addresses T1, HLA-DRB1*15:01 (Homo sapiens, UniProt P01903+P01911).
T1 construct: endogenous in cells; host or cells: EBV homozygous cell lines (human)
Kind of test: HLA II binding assay (competitive, biotinylated reference peptide). The following applies: for IC50: Table 2, DRB1*15:01 binding, unit inferred, nM, read-out: Avg IC50; for pIC50: read-out: binding IC50.

pIC50: −log10 of the molar value. Read-outs that look alike come from different tables or passages of the source. *1 amine or outer side, *2 acyl side, *3 side chain or, on linkers, in order; H or OH if unused. Where a SMILES comes first, the peptide text is derived from it. [ ]: non-standard residue; d: D form. The star is where a group is joined. Ala(indol-4-yl) = N[C@@H](Cc1cccc2[nH]ccc12)C(=O)O; Phe(3,4-Cl2) = N[C@@H](Cc1ccc(Cl)c(Cl)c1)C(=O)O; Trp(1-Me) = Cn1cc(C[C@H](N)C(=O)O)c2ccccc21; X1 = O=C([C@H](Cc1ccc2ccccc2n1)N[*:1])[*:2]; Oic = O=C(O)[C@@H]1C[C@@H]2CCCC[C@@H]2N1; Phe(4-F) = N[C@@H](Cc1ccc(F)cc1)C(=O)O; Bta = N[C@@H](Cc1csc2ccccc12)C(=O)O; Gly(cPent) = N[C@H](C(=O)O)C1CCCC1; Igl = N[C@H](C(=O)O)C1Cc2ccccc2C1; Tic = O=C(O)[C@@H]1Cc2ccccc2CN1; Agb = N=C(N)NCC[C@H](N)C(=O)O; Chg = N[C@H](C(=O)O)C1CCCCC1; Tle = CC(C)(C)[C@H](N)C(=O)O; Morpholide = C1CN(*)CCO1; Nva = CCC[C@H](N)C(=O)O; Sar = CNCC(=O)O

As to `CC(=O)N[C@H](C(=O)N[C@@H](CCCNC(=N)N)C(=O)N[C@@H](Cc1ccccc1)C(=O)N[C@@H](Cc1ccccc1)C(N)=O)C(C)C` [PV-119, reference compound] (Ac-VRFF-NH2), the 50% inhibitory concentration (IC50) was 5000 nM. For `CC(=O)N[C@H](C(=O)N[C@@H](CCCNC(=N)N)C(=O)N1Cc2ccccc2C[C@H]1C(=O)N[C@@H](Cc1cccc2[nH]ccc12)C(N)=O)C1CCCCC1` [PV-476] (Ac-[Chg]R[Tic][Ala(indol-4-yl)]-NH2), the 50% inhibitory concentration (IC50) worked out at 30.1 nM. On the same count and under the same terms, the value for `CC(=O)N[C@H](C(=O)N[C@@H](CCCNC(=N)N)C(=O)N1Cc2ccccc2C[C@H]1C(=O)N[C@@H](Cc1csc2ccccc12)C(N)=O)C1CCCCC1` [PV-477] (Ac-[Chg]R[Tic][Bta]-NH2) was 82 nM.

For the compound `CC(=O)N[C@H](C(=O)N[C@H](C(=O)N[C@@H](CCCNC(=N)N)C(=O)N1Cc2ccccc2C[C@H]1C(=O)N[C@@H](Cc1csc2ccccc12)C(N)=O)C1CCCCC1)C(C)C` [PV-478] (Ac-V[Chg]R[Tic][Bta]-NH2), the IC50 came out at 2.1 nM.

For `CC(=O)N[C@H](C(=O)N[C@H](C(=O)N[C@@H](CCCNC(=N)N)C(=O)N1Cc2ccccc2C[C@H]1C(=O)N[C@@H](Cc1cccc2[nH]ccc12)C(N)=O)C1CCCCC1)C(C)C` [PV-493] (Ac-V[Chg]R[Tic][Ala(indol-4-yl)]-NH2), the IC50 is 1.5 nM. As to `CC(=O)N[C@H](C(=O)N[C@@H](CCCNC(=N)N)C(=O)N1Cc2ccccc2C[C@H]1C(=O)N[C@@H](Cc1c[nH]c2ccccc12)C(N)=O)C1CCCCC1` [PV-507] (Ac-[Chg]R[Tic]W-NH2), the concentration for half-maximal inhibition (IC50) was 48 nM. For the compound `CC(=O)N[C@H](C(=O)N[C@@H](CCCNC(=N)N)C(=O)N1Cc2ccccc2C[C@H]1C(=O)N[C@@H](Cc1cn(C)c2ccccc12)C(N)=O)C1CCCCC1` [PV-508] (Ac-[Chg]R[Tic][Trp(1-Me)]-NH2), the IC50 is 213 nM. Still for that read-out and setting: the value for `CC(=O)N[C@H](C(=O)N[C@H](C(=O)N[C@@H](CCCNC(=N)N)C(=O)N1Cc2ccccc2C[C@H]1C(=O)N[C@@H](Cc1ccccc1)C(N)=O)C1CCCCC1)[C@@H](C)O` [PV-526] (Ac-T[Chg]R[Tic]F-NH2) was 29 nM. The same measure, in the same setting: the result for `CC(=O)N[C@H](C(=O)N[C@H](C(=O)N[C@@H](C)C(=O)N1Cc2ccccc2C[C@H]1C(=O)N[C@@H](Cc1ccccc1)C(N)=O)C1CCCCC1)C(C)C` [PV-560] (Ac-V[Chg]A[Tic]F-NH2) reads 43 nM. On the same count and under the same terms, the result for `CC(=O)N[C@H](C(=O)N[C@H](C(=O)N[C@@H](CCNC(=N)N)C(=O)N1Cc2ccccc2C[C@H]1C(=O)N[C@@H](Cc1ccccc1)C(N)=O)C1CCCCC1)C(C)C` [PV-562] (Ac-V[Chg][Agb][Tic]F-NH2) reads 5.3 nM; that for `CC(=O)N[C@H](C(=O)N[C@H](C(=O)N[C@@H](CCCNC(=N)N)C(=O)N1Cc2ccccc2C[C@H]1C(=O)N[C@@H](Cc1ccccc1)C(N)=O)C1CCCC1)C(C)C` [PV-573] (Ac-V[Gly(cPent)]R[Tic]F-NH2), 6.7 nM; that for `CC(=O)N[C@H](C(=O)N[C@H](C(=O)N[C@@H](CCCNC(=N)N)C(=O)N1Cc2ccccc2C[C@H]1C(=O)N[C@@H](Cc1ccc(F)cc1)C(N)=O)C1CCCCC1)C(C)C` [PV-574] (Ac-V[Chg]R[Tic][Phe(4-F)]-NH2), 2.3 nM. Turning to `CC(=O)N[C@H](C(=O)N[C@H](C(=O)N[C@@H](CCCNC(=N)N)C(=O)N1Cc2ccccc2C[C@H]1C(=O)N[C@@H](Cc1c[nH]c2ccccc12)C(N)=O)C1CCCCC1)C(C)C` [PV-579] (Ac-V[Chg]R[Tic]W-NH2), the IC50 came out at 1.3 nM.

Regarding `CC(=O)N[C@H](C(=O)N[C@H](C(=O)N[C@@H](Cc1c[nH]cn1)C(=O)N1Cc2ccccc2C[C@H]1C(=O)N[C@@H](Cc1ccccc1)C(N)=O)C1CCCCC1)C(C)C` [PV-580] (Ac-V[Chg]H[Tic]F-NH2), the 50% inhibitory concentration (IC50) is 28 nM. Same read-out and setting: the result for `CC(=O)N[C@H](C(=O)N[C@H](C(=O)N[C@@H](CCCNC(=N)N)C(=O)N1[C@H](C(=O)N[C@@H](Cc2ccccc2)C(N)=O)C[C@@H]2CCCC[C@@H]21)C1CCCCC1)C(C)C` [PV-589, reference compound] (Ac-V[Chg]R[Oic]F-NH2) reads 474 nM; that for `CC(=O)N[C@H](C(=O)N[C@H](C(=O)N[C@@H](CCCNC(=N)N)C(=O)N1Cc2ccccc2C[C@H]1C(=O)N[C@@H](Cc1ccccc1)C(N)=O)C1CCCCC1)C(C)(C)C` [PV-590] (Ac-[Tle][Chg]R[Tic]F-NH2), 1.3 nM.

For the compound `CCC[C@H](NC(C)=O)C(=O)N[C@H](C(=O)N[C@@H](CCCNC(=N)N)C(=O)N1Cc2ccccc2C[C@H]1C(=O)N[C@@H](Cc1ccccc1)C(N)=O)C1CCCCC1` [PV-591] (Ac-[Nva][Chg]R[Tic]F-NH2), the 50% inhibitory concentration (IC50) came to 4.1 nM. Turning to `CO[C@H](C)[C@H](NC(C)=O)C(=O)N[C@H](C(=O)N[C@@H](CCCNC(=N)N)C(=O)N1Cc2ccccc2C[C@H]1C(=O)N[C@@H](Cc1ccccc1)C(N)=O)C1CCCCC1` [PV-592] (Ac-T(Me)[Chg]R[Tic]F-NH2), the concentration for half-maximal inhibition (IC50) is 4.1 nM. On the same count and under the same terms, the value for `CC(=O)N[C@H](C(=O)N[C@H](C(=O)N[C@@H](CCCNC(=N)N)C(=O)N1Cc2ccccc2C[C@H]1C(=O)N[C@@H](Cc1ccc(Cl)c(Cl)c1)C(N)=O)C1CCCCC1)C(C)C` [PV-593] (Ac-V[Chg]R[Tic][Phe(3,4-Cl2)]-NH2) was 4.1 nM. The same measure, in the same setting: the value for `CC(=O)N[C@H](C(=O)N[C@H](C(=O)N[C@@H](CCCNC(=N)N)C(=O)N1Cc2ccccc2C[C@H]1C(=O)N[C@@H](Cc1ccccc1)C(N)=O)C1Cc2ccccc2C1)C(C)C` [PV-594] (Ac-V[Igl]R[Tic]F-NH2) was 14 nM; that for `CC(=O)N[C@H](C(=O)N[C@H](C(=O)N[C@@H](CCCNC(=N)N)C(=O)N1Cc2ccccc2C[C@H]1C(=O)N[C@@H](Cc1ccc2ccccc2n1)C(N)=O)C1CCCCC1)C(C)C` [PV-617, reference compound] (Ac-V[Chg]R[Tic][X1]-NH2) was 3450 nM; that for `CC(=O)N[C@H](C(=O)N[C@H](C(=O)N[C@@H](CCCNC(=N)N)C(=O)N1Cc2ccccc2C[C@H]1C(=O)N[C@@H](Cc1ccccc1)C(=O)O)C1Cc2ccccc2C1)C(C)C` [PV-624] (Ac-V[Igl]R[Tic]F-OH) was 161 nM. `CNC(=O)[C@H](Cc1ccccc1)NC(=O)[C@@H]1Cc2ccccc2CN1C(=O)[C@H](CCCNC(=N)N)NC(=O)[C@@H](NC(=O)[C@@H](NC(C)=O)C(C)C)C1CCCCC1` [PV-625] (Ac-V[Chg]R[Tic]F-NHMe): the pIC50 is 7.80. For the same compound, the “loss in binding affinity relative to PV-267” value (N-methyl amide vs primary amide) was 8 fold.

Consider `CNC(=O)[C@H](Cc1ccccc1)NC(=O)[C@@H]1Cc2ccccc2CN1C(=O)[C@H](CCCNC(=N)N)NC(=O)[C@@H](NC(=O)[C@@H](NC(C)=O)C(C)C)C1Cc2ccccc2C1` [PV-629] (Ac-V[Igl]R[Tic]F-NHMe), for which the IC50 is 17 nM. As to `CC(=O)N[C@H](C(=O)N[C@H](C(=O)N[C@@H](CCCNC(=N)N)C(=O)N1Cc2ccccc2C[C@H]1C(=O)N[C@@H](Cc1ccccc1)C(=O)N1CCOCC1)C1CCCCC1)C(C)C` [PV-630] (Ac-V[Chg]R[Tic]F-Morpholide), the pIC50 was 7.48. On to `CC(C)[C@H](NC(=O)CN)C(=O)N[C@H](C(=O)N[C@@H](CCCNC(=N)N)C(=O)N1Cc2ccccc2C[C@H]1C(=O)N[C@@H](Cc1ccccc1)C(N)=O)C1CCCCC1` [PV-633] (H-GV[Chg]R[Tic]F-NH2), for which the IC50 is 1 nM.

Take `CNCC(=O)N[C@H](C(=O)N[C@H](C(=O)N[C@@H](CCCNC(=N)N)C(=O)N1Cc2ccccc2C[C@H]1C(=O)N[C@@H](Cc1ccccc1)C(N)=O)C1CCCCC1)C(C)C` [PV-636] (H-[Sar]V[Chg]R[Tic]F-NH2): the IC50 was found to be 3 nM.
